This is an account of results in ChEMBL document CHEMBL1833912, “Discovery of PF-184563, a potent and selective V1a antagonist for the treatment of dysmenorrhoea. The influence of compound flexibility on microsomal stability” (Bioorg Med Chem Lett, 2011).

Assay type in all cases: ADME, organism-based
Conditions in all cases: in vivo

Data set [1] in a line: Cmax in Sprague-Dawley rat at 2 mg/kg, iv and po. Further details: dose 2 mg/kg, route oral.
In the next data set the test system is Rattus norvegicus. Nature of the data set: Volume of distribution in Sprague-Dawley rat at 2 mg/kg, iv and po. Further details: dose 2 mg/kg, route oral.
Data set [2] can be described thus: Tmax in Sprague-Dawley rat at 2 mg/kg, iv and po. Further details: dose 2 mg/kg, route oral.
A short description of data set [3]: Bioavailability in Sprague-Dawley rat at 2 mg/kg, iv and po.

What is called Cmax is the peak of the concentration-time curve. One may read the Tmax as the time from dosing to the highest level. For orientation: bioavailability means dose-corrected exposure relative to a reference, in per cent. In turn, `CN1Cc2cc(Cl)ccc2-n2c(nnc2C2CCN(c3ccccn3)CC2)C1` displayed a Cmax in data set [1] of 97 ng/mL. Moreover, the Vd with Rattus norvegicus amounted to 2.7 L/kg. Also, the Tmax in data set [2] stood at 48 min. Besides, the bioavailability in data set [3] came out at 34%.
